Results from patent publication US20250171420A1 (Monte Rosa Therapeutics, Inc., priority 2022, published 2025).
Where two headings read alike, the source gives them in different places.

Assays:
CRBN/DDB1 = CRBN/DDB1 (Homo sapiens, UniProt Q96SW2); experiment: HTRF binding assay (displacement of Cy5-thalidomide probe from CRBN/DDB1)
How it was run: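 HTRF displacement of Cy5-thalidomide (100 nM) from His-tagged CRBN/DDB1 (2.5 nM) with anti-His Tb cryptate in 20 mM HEPES, 20 mM NaCl, 0.2 mM TCEP, 0.2 mM EDTA, 0.005% Tween20. 10-point 1:3 series, 30 min ambient. 665/620 nm ratio fitted 4-parameter for IC50; Ki by Cheng-Prusoff from geometric-mean IC50.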

CK1α [1] = molecular target: T1, CK1α (Homo sapiens, UniProt P48729+Q96SW2); experiment: CK1α NanoBit Assay (HiBiT-tagged CSNK1A1, HEK293 clonal lines); format: cell-based; conditions: read-out: CK1α DC50 (μM) 24 h; HEK293 HiBiT-CSNK1A1/LgBiT cells, 24 h incubation
T1 construct: HEK293 clonal lines with CRISPR KI HiBiT tag on CSNK1A1
How it was run: (§1)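 HEK293 clones carrying a CRISPR knock-in HiBiT tag on CSNK1A1 and stably expressing LgBiT are treated with compound for 24 hours at 37° C, 5% CO2, then read by luminescence. Response is normalized as 100*(S−N)/(P−N) against plate negative and positive controls, and DC50 values are derived.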

CW2 cell line = experiment: Growth inhibition, CyQUANT Direct Cell Proliferation Assay, CW2; format: cell-based; conditions: Homo sapiens, CW-2; CW2, 120 to 168 hours; read-out: CW2 GI50
Method: (§2) SKCO1, LS180, and LS174T cell lines were purchased from ATCC. CW2 cell line was purchased from Riken. GP2D cell line was purchased from Sigma/ECACC. All cell lines were cultured in manufacturer's recommended media at 37° C., 5% CO2. Briefly, cells were suspended in 200 μL of media and seeded at 300 to 1,800 cells per well in tissue culture treated 96-well plates with black walls and clear bottom. Plates were incubated overnight and initial (To) read was performed the following day using CyQUANT Direct Cell Proliferation Assay Kit (Thermo Fisher Scientific) according to manufacturer's protocol. All compounds were solubilized in DMSO and prepared at 3-fold serial dilution, using 9 points starting at 30 μM as highest concentration, administered to cells and incubated for 120 to 168 hours, at which point CyQUANT assay measurement was performed using Acumen Cellista instrument (Ex/Em 480/520 nm). Media-only wells were used as blank, and 0.3% DMSO was used as DMSO-treated cell control. Growth inhibition (percent response) was calculated using the following formula in Excel: “=if ([Compound treated Day N]>[Untreated Day 0, AVG], ([Compound treated Day N]−[Untreated Day 0, AVG])/([Untreated Day N]−[Untreated Day 0, AVG])*100, ([Compound Treated Day N]−[Untreated Day 0, AVG])/([Untreated Day 0, AVG])*100)”. GI50 is the response corresponding to the 50% of untreated control.
(§3) GI50 data are reported in Tables 4a, 4b, 4c, 4d, and 4e for compounds in Table 1. In Tables 4a, 4b, 4c, 4d, and 4e below, According to the code, A represents a GI50 value of ≤0.1 μM, B represents a GI50 value>0.1 μM and ≤1 μM, C represents an GI50 value>1 μM.

SKCO1 cell line = experiment: Growth inhibition, CyQUANT Direct Cell Proliferation Assay, SKCO1; format: cell-based; conditions: Homo sapiens, SK-CO-1; SKCO1, 120 to 168 hours; read-out: SKCO1 GI50
Method: as §2, §3

[2] = Oral pharmacokinetics in male BALB/c mice; format: in vivo; conditions: mouse, plasma, mean ± SD
Method: Male BALB/c mice were administered a discrete, oral (PO) dose of Compound 288, Compound 335, Compound 102, or Compound 303 at 10 mg/kg; all mice were fasted except for mice that were dosed with Compound 288. Male BALB/c mice were fasted overnight and administered a cassette dose, PO dose of Compound 303 and other compounds at 5 mg/kg per compound.
Blood samples were collected serially from three animals/time-point following PO administration of the test compounds to the mice and placed in tubes containing K2EDTA. The blood samples were centrifuged, and the aliquots of the resulting plasma stored frozen at −60 to −90° C.
The plasma samples were analyzed by LC-MS/MS to determine concentrations of the test compounds. The in-life portion of the study and the bioanalysis of plasma samples was conducted at Wuxi (China).
The pharmacokinetic parameters for the tested compounds were calculated by non-compartmental analysis using Phoenix WinNonlin software.

CK1α [3] = molecular target: T2, CK1α (Homo sapiens, UniProt P48729); experiment: CK1α NanoBit Assay (HiBiT-tagged CSNK1A1, HEK293 clonal lines); format: cell-based; conditions: HEK293 HiBiT-CSNK1A1/LgBiT cells, 24 h incubation
T2 construct: HEK293 clonal lines with CRISPR KI HiBiT tag on CSNK1A1
How it was run: as §1

LS174T cell line = experiment: Growth inhibition, CyQUANT Direct Cell Proliferation Assay, LS174T; format: cell-based; conditions: Homo sapiens, 120 to 168 hours, read-out: LS174T GI50
Method: as §2, §3

GP2D cell line = experiment: Growth inhibition, CyQUANT Direct Cell Proliferation Assay, GP2D; format: cell-based; conditions: GP2D, 120 to 168 hours; read-out: GP2D GI50
Method: as §2, §3

LS180 cell line = experiment: Growth inhibition, CyQUANT Direct Cell Proliferation Assay, LS180; format: cell-based; conditions: Homo sapiens; LS180, 120 to 168 hours; read-out: LS180 GI50
Method: as §2, §3

[4] = CRBN/DDB1 2.5 nM, Cy5-Thalidomide 100 nM, 30 min, geometric mean, read-out: HTRF_Thali_Disp_DR_geo_IC50

T2 sequence (P48729 whole entry): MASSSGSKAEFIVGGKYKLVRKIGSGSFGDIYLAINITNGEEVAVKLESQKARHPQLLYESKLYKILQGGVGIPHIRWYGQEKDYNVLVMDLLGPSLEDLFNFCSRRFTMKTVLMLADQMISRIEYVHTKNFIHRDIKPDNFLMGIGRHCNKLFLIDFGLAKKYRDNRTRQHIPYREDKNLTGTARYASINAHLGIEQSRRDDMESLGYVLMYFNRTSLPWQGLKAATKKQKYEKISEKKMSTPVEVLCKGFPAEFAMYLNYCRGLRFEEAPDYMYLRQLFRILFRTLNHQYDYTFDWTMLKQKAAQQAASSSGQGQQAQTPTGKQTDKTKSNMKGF
T2 sequence (Q96SW2 whole entry, further chain): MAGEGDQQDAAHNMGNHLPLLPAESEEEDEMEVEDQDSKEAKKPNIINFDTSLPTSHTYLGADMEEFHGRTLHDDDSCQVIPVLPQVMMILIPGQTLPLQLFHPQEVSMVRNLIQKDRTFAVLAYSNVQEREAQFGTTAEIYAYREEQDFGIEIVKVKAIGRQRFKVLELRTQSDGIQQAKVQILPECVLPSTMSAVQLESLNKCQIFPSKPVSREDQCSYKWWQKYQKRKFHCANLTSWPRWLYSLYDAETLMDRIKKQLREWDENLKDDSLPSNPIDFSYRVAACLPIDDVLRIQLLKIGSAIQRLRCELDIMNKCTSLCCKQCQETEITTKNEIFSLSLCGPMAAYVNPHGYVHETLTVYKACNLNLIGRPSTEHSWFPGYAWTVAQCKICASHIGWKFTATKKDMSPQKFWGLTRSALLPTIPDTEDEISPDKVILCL
T2 sequence (Q16531 2-1140 partner limits assumed): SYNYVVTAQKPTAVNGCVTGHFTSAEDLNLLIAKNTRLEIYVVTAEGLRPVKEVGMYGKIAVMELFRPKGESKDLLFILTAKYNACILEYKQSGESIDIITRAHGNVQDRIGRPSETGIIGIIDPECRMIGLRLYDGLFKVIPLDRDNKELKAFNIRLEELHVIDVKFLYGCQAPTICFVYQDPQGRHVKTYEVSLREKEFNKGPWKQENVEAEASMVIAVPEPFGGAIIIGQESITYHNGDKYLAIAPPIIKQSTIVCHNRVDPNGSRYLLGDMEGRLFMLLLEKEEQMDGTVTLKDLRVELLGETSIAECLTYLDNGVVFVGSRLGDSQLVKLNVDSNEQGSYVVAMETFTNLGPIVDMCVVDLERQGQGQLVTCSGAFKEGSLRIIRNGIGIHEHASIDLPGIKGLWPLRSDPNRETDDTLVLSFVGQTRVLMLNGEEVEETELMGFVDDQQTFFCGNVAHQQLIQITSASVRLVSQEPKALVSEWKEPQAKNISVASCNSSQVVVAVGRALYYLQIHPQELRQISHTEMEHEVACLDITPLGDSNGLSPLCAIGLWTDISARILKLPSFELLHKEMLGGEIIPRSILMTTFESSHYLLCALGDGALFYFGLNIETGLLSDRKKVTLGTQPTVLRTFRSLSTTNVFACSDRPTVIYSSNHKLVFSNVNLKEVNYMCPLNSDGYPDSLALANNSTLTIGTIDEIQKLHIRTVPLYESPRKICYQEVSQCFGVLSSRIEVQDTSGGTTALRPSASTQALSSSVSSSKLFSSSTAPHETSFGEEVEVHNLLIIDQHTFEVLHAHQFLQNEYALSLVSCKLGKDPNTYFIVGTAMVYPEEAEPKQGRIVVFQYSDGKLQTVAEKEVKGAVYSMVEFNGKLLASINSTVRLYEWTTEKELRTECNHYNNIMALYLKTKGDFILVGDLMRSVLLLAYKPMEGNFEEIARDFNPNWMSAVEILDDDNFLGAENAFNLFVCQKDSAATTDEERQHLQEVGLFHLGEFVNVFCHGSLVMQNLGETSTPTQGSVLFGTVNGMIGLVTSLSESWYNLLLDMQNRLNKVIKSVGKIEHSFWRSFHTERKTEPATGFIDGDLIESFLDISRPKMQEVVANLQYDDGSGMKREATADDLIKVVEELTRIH
Sequence of CRBN/DDB1 (Q96SW2 whole entry, species assumed): as the sequence (Q96SW2 whole entry, further chain) above
Sequence of CRBN/DDB1 (Q16531 whole entry partner, species assumed): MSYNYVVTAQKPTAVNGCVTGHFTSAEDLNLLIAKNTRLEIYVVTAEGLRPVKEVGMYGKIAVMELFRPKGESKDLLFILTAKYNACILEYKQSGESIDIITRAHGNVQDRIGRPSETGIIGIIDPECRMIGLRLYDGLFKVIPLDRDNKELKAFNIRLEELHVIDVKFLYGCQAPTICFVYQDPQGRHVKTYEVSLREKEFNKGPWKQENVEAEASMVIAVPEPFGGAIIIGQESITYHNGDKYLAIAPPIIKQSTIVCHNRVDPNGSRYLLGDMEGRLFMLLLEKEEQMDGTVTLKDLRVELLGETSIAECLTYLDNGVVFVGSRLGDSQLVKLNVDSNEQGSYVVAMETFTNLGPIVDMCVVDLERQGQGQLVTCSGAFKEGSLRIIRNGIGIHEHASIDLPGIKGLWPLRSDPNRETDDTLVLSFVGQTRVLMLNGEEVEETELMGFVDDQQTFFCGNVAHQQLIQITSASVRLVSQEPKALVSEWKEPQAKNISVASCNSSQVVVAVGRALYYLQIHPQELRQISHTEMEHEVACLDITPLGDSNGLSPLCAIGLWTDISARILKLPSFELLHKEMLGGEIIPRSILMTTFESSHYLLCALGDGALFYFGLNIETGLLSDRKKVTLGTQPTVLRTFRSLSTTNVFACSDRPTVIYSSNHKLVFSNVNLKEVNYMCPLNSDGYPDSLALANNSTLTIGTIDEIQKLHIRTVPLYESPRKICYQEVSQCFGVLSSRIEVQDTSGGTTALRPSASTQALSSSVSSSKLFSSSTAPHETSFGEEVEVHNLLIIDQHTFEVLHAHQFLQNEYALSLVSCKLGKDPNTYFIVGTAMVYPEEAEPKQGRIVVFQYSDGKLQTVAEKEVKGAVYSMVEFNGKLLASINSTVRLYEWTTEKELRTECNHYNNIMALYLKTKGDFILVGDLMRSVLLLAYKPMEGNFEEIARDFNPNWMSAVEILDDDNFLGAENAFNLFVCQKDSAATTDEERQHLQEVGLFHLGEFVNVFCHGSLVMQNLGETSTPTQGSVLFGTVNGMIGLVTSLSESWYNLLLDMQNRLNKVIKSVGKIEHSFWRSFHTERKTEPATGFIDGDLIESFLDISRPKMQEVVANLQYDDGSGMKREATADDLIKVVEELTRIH
T1 sequence (P48729 whole entry): as the sequence (P48729 whole entry) above
T1 sequence (Q96SW2 whole entry): as the sequence (Q96SW2 whole entry, further chain) above
T1 sequence (Q16531 2-1140 partner limits assumed): as the sequence (Q16531 2-1140 partner limits assumed) above

SMILES	IC50 (CRBN/DDB1)	DC50 (CK1α [1])	GI50 (CW2 cell line)	GI50 (SKCO1 cell line)	IC50 (CRBN/DDB1; [4])	AUC ([2]; PO 10 mg/kg)	AUC(0-t) ([2]; PO 10 mg/kg)	Cmax ([2]; PO 10 mg/kg)	Tmax ([2]; PO 10 mg/kg)	half-life ([2]; PO 10 mg/kg)	DC50 (CK1α [3])	GI50 (LS174T cell line)	GI50 (GP2D cell line)	GI50 (LS180 cell line)	AUC ([2]; PO 5 mg/kg (cassette dose))	AUC(0-t) ([2]; PO 5 mg/kg (cassette dose))	Cmax ([2]; PO 5 mg/kg (cassette dose))	Tmax ([2]; PO 5 mg/kg (cassette dose))	half-life ([2]; PO 5 mg/kg (cassette dose))
CC(C)(C)C1CN(C(=O)Nc2ccc3c(c2)CN(C2CCC(=O)NC2=O)C3=O)c2ccccc21 (stereo not shown) [Compound 187, 3-(tert-butyl)-N-(2-(2,6-dioxopiperidin-3-yl)-1-oxoisoindolin-5-yl)indoline-1-carboxamide]	100 to 1000 nM	< 0.1 µM	–	–	–	–	–	–	–	–	–	–	–	–	–	–	–	–	–
COC[C@@H]1Cc2ccccc2N1C(=O)Nc1ccc2c(c1)CN(C1CCC(=O)NC1=O)C2=O (stereo partly drawn) [Compound 288, (2S)—N-(2-(2,6-dioxopiperidin-3-yl)-1-oxoisoindolin-5-yl)-2-(methoxymethyl)indoline-1-carboxamide]	–	–	< 100 nM	< 100 nM	100 to 1000 nM	29700 ± 2450 ng·h/mL	29600 ± 2460 ng·h/mL	6870 ± 761 ng/mL	49.8 ± 17.4 min	163 ± 29.4 min	< 0.1 µM	100 to 1000 nM	100 to 1000 nM	100 to 1000 nM	–	–	–	–	–
COC[C@H]1Cc2c(F)cccc2N1C(=O)Nc1ccc2c(c1)CN(C1CCC(=O)NC1=O)C2=O (stereo partly drawn) [Compound 303, (2R)—N-(2-(2,6-dioxopiperidin-3-yl)-1-oxoisoindolin-5-yl)-4-fluoro-2-(methoxymethyl)indoline-1-carboxamide]	–	–	–	–	100 to 1000 nM	–	–	–	–	–	< 0.1 µM	–	–	–	12700 ± 1760 ng·h/mL	12300 ± 1710 ng·h/mL	7790 ± 1060 ng/mL	30 min	90.6 ± 13.2 min
COCC1c2ccc(C3CC3)cc2CN1C(=O)Nc1ccc2c(c1)CN(C1CCC(=O)NC1=O)C2=O (stereo not shown) [Compound 335, 5-cyclopropyl-N-(2-(2,6-dioxopiperidin-3-yl)-1-oxoisoindolin-5-yl)-1-(methoxymethyl)isoindoline-2-carboxamide]	–	–	–	–	100 to 1000 nM	13400 ± 696 ng·h/mL	13300 ± 694 ng·h/mL	10600 ± 697 ng/mL	15 min	64.8 ± 2.4 min	< 0.1 µM	–	–	–	–	–	–	–	–
